Patent US9011863B2, “Combinations of kinase inhibitors for the treatment of cancer” (Exelixis, Inc., priority 2010, dated 2015)
Where two headings read alike, the source gives them in different places.

Tests used:
[1] = test system: HCC1937 human breast cancer cells; experiment: HCC1937 cell viability, alamar blue assay; format: cell-based; settings: read-out: growth inhibition IC50
Experimental: FIG. 1B. siRNA screen to identify kinases that potentially compensate for PI3K inhibition. HCC1937 cells were seeded in triplicate in a 96-well plate and treated with DMSO or the indicated concentration of compound A for 72 hours. Cell viability was measured by the alamar blue assay.
The purpose of the present study is to identify kinases and kinase-regulated signaling pathways that compensate for PI3K inhibition in human breast cancer cells. To this end, siRNA screen is employed targeting 779 human kinases in order to determine if downregulation of specific kinases increases the sensitivity of HCC1937 human breast cancer cells to the PI3K inhibitor compound A, which a compound of formula I and of Table 1. […] Following reverse transfection with the siRNA library, cells are treated with either DMSO or 10 μM compound A for 72 hours in a medium containing 2.5% fetal bovine serum (FIGS. 1A and 2) and the alamar blue assay is used to measure cell viability FIG. 1B. […] HCC1937 cells were treated with 10 μM compound A in medium containing 2.5% FBS for 0, 2, 8, or 24 hours. RNA was isolated with Trizol and purified using the RNeasy column (Qiagen). Gene expression from three independent experiments was measured using the Gene titan 3′ microarray. *, p<0.05; **, p<0.01 versus 0 hours, as shown in FIG. 5.

FoxO1 and FoxO3a = experiment: cytoplasmic and nuclear fractionation, FoxO immunoblot; format: cell-based, human; settings: BT474 and MDA453; 6 μM compound A or 2 μM 5J8; 4 hours
Experimental: Nuclear (Nu) and cytoplasmic (Cy) extracts were isolated and subjected to immunoblotting with FoxO1 and FoxO3a antibodies. Loading controls for Nu: HDAC3; for Cy: RhoA (BT474) and MEK1/2 (MDA453).
Cytoplasmic and nuclear extracts were prepared using the Nuclear Extract Kit from Active Motif. Briefly, cells were plated in 100-mm dishes, treated with inhibitors at the indicated concentrations for 3-4 hours, washed with ice-cold PBS/phosphatase inhibitors, lysed in hypotonic buffer and centrifuged for 30 seconds at 14,000 rpm at 4° C. to collect the supernatant (cytoplasmic extract). The pellet (nuclear fraction) was resuspended in complete lysis buffer and centrifuged for 10 minutes at 14,000 rpm at 4° C. to collect the supernatant (nuclear fraction).

[2] = test system: human breast cancer cell lines; experiment: three-dimensional (3D) growth in Matrigel; format: cell-based; settings: 3D Matrigel, 2.5% FBS, read-out: IC50 in cells tested in 3D
Experimental: Cells were seeded in 8-well chamber slides in growth-factor reduced Matrigel (BD Biosciences, San Jose Calif., USA)±compound A according to published methods. Fresh medium and drugs were replenished every third day. Colonies were photographed with an inverted light microscope with an ocular magnification of 10 times on the days recited in figures herein.
A panel of breast cancer cell lines with dysregulated PI3K activity was treated with increasing doses of compound A under two- and three-dimensional (2D and 3D) growth conditions. All experiments were conducted in 2.5% FBS-containing media, unless otherwise stated. […] This was further confirmed by immunoblot analysis of biomarkers of cell death and G1-S cell cycle transition in lysates from cells treated for 24 hours with compound A as shown in FIG. 10B.

[3] = test system: HER3, pHER3^Y1289, pAKT^S473; experiment: immunohistochemistry of BT474 xenografts; format: in vivo, mice; settings: day 28
Experimental: FIG. 18B depicts photomicrographs of immunohistochemistry sections from formalin-fixed, paraffin-embedded tumor blocks. Xenografts were harvested on day 28, 1 hour after the last dose of lapatinib and/or compound A. Antibodies used were against HER3, pHER3^Y1289, and pAKT^S473. Photographs were taken at 400× magnification (scale bar: 50 μm).
All tumor samples (collected within 1 hour of last treatment) were fixed in 10% neutral buffered formalin for 24 hours at room temperature, followed by dehydration and paraffin embedding. Immunostaining was done on 5-μm tissue sections. After deparaffinization in xylene and graded alcohols heat-induced antigen retrieval was performed in a pH 6.0 citrate buffer followed by incubation with 3% hydrogen peroxide for 20 minutes, with protein block (Dako) for 10 minutes, and finally with primary antibody overnight at 4° C. The Envision Visualization System (Dako, Carpinteria, Calif., USA) was used, followed by DAB as chromagen and counterstained with hematoxylin. Tumor sections were studied on a light microscope with an ocular magnification of 400 times. Average percentage and intensity of tumor cell staining was calculated as a histoscore (H-score) (as described in Goulding, H., et al. (1995), Hum. Pathol. 26:291-294, which is incorporated herein by reference in its entirety). An expert pathologist (MGK) scoring the sections was blinded to the type of treatment.
Using immunohistochemistry (IHC), experiments were performed to examine pharmacodynamic biomarkers of target inactivation in xenografts after 28 days of treatment. […] Therefore, experiments were performed to quantify differences in pAKT^S473 expression in both cytoplasmic and nuclear compartments in xenograft sections.

[4] = Experimental: The lung cancer cell line A549 was selected for this study. […] Lung A549 cells were implanted s.c. in female Swiss nude mice using standard techniques. […] Control groups were left untreated. […]
For the evaluation of anti-tumor activity of conjugates, animals were weighed daily and tumors were measured twice weekly by caliper. A dosage producing a 20% weight loss at nadir (mean of group) or a 15% weight loss (mean of group) three successive times or drug deaths, was considered an excessively toxic dosage. Animal body weights included the tumor weights. Tumor weights were calculated using the formula mass (mg)=[length (mm)×width (mm)2]/2. The primary efficacy end points are ΔT/ΔT, percent median regression, partial and complete regressions (PR and CR), and Tumor free survivors (TFS). Changes in tumor volume for each treated (T) and control (C) were calculated for each tumor by subtracting the tumor volume on the day of first treatment (staging day) from the tumor volume on the specified observation day. The median ΔT was calculated for the treated group, and the median ΔT was calculated for the control group. Then the ratio ΔT/ΔT was calculated and expressed as a percentage: ΔT/ΔT=(delta T/delta C)×100. A dose is considered therapeutically active when ΔT/ΔT is lower than 40% and very active when ΔT/ΔT is lower than 10%. […] Percent tumor regression is defined as the percent of tumor volume decrease in the treated group at a specified observation day compared to its volume on the first day of first treatment. At a specific time point and for each animal, percent regression is calculated. The median percent regression is then calculated for the group. % regression (at t)=[volumet0−volumet/volument0]×100. Partial regression (PR): Regressions are defined as partial if the tumor volume decreases to 50% of the tumor volume at the start of treatment. Complete regression (CR): Complete regression is achieved when tumor volume=0 mm^3 (CR is considered when tumor volume cannot be recorded). TFS: Tumor free is defined as the animals with undetectable tumors at the end of the study (>100 days post last treatment).

HER3 protein = experiment: half-life of the HER3 protein with cycloheximide; format: cell-based, human; settings: BT474 cells
Experimental: The half-life of the HER3 protein in absence and presence of compound A was determined using cycloheximide, an inhibitor of protein synthesis. […] Next the levels of HER3 mRNA was examined by qPCR upon inhibition of PI3K over a time course using the approximate IC50 of compound A (6 μM).

[5] = Compound A PO 5 (160) mg/kg Q1Dx32
[6] = Compound A PO 100 (3200) mg/kg Q1Dx32

With `COc1ccc(Cl)c(Nc2nc3ccccc3nc2NS(=O)(=O)c2cccc(NC(=O)C(C)(C)N)c2)c1` [Compound A] the IC50 [1] was 10 µM, the “subcellular distribution of FoxO1 and FoxO3a” value (FoxO1 and FoxO3a) was “accumulation of both FoxO factors in the nucleus of BT474 and MDA453 cells” and the IC50 [2] was at most 6 µM. The “nuclear pAKT^S473 by IHC” value [3] was “statistically inhibited nuclear pAKT levels”, the “pHER3 by IHC” value [3] was “did not reduce membrane pHER3” and the “Average body weight change in % per mouse at nadir” value [4, 5] was −7.34%. The “Drug death (Day of death)” value [4, 5] was 0/7, the day of nadir [4, 5] was 65 days and the “Average body weight change in % per mouse at nadir” value [4, 6] was −10.25%. The “Drug death (Day of death)” value [4, 6] was 0/7, the day of nadir [4, 6] was 65 days and the “Average body weight change in % per mouse at nadir” value ([4]; Compound A PO 100 (3200) mg/kg Q1Dx32, listed as compound A) was −10.3%. The “body weight loss at nadir” value ([4]; compound A at 30 mg/kg PO daily) was −7.3% and the “rate of decay of the HER3 protein” value (HER3 protein) was “not significantly altered”.
